Earlier results, collected in patent US5374661A (Sano Corporation, priority 1993, dated 1994).

Columns and labels:
[1] = oral

Q: For O=C(O)Cc1ccccc1Nc1c(Cl)cccc1Cl [Diclofenac], which “inhibition of cyclooxygenase pathway (in words)” value (cyclooxygenase) is on record?
A: Its value is “inhibits the cyclooxygenase pathway with subsequent reduction in prostaglandin and thromboxane production”.

Q: What about the “inhibition of lipoxygenase pathway (in words)” value (lipoxygenase pathway) of the same compound?
A: Its value is “may inhibit the lipoxygenase pathway with subsequent reduction in leukotriene production”.

Q: And the “less frequent side effects” value [1]?
A: The value was “abdominal distension, flatulence and peptic ulcers with bleeding”.

Q: What about the “most common gastrointestinal side effects” value [1] of the same compound?
A: Its value is “nausea, vomiting, abdominal pain, dyspepsia and diarrhea”.
